Results on ten molecules are retold here after the supplement of paper PMC11061612.

Test in all cases: Bliss excess, mean over the matrix (fraction); higher = more synergy
One test deals with IMR-5 (Neuroblastoma). Summed up:
(§1)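 Cell lines grown in DMEM/F12 or RPMI with 10% FBS were plated in 1536-well plates and held 24 hours at 37°C, 5% CO2 before 72 hours of exposure to two-drug dose matrices, with DMSO typically at 0.2%. CellTiter-Glo 2.0 luminescence gave viability, which was converted to inhibition. Vehicle wells were set to 0 and blank wells to 1. Combination Emax is the second-highest inhibition in the matrix, and Bliss excess is the observed combination effect minus the expected EA + EB − EA·EB, where EA and EB are the single-agent effects.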

The next test has as its system GI-1 (Glioblastoma). The method, boiled down:
as §1

Another test deals with EW-13 (Ewing's Sarcoma). The method, boiled down: as §1
In test [1] the test system is KYSE-150 (Esophageal Squamous Cell Carcinoma). The method, boiled down:
as §1

In test [2] the test system is LC4-1 (B-Lymphoblastic Leukemia). The method, boiled down: as §1
For test [3], the system named is KU-19-19 (Bladder Carcinoma). Summed up:
as §1

Test [4] relates to PFSK-1 (Other Solid Carcinomas). The method, boiled down: as §1
Test [5] relates to BV-173 (Chronic Myelogenous Leukemia). The method, boiled down: as §1
In test [6] the test system is KINGS-1 (Low Grade Glioma). Summed up: as §1
A further test concerns A704 (Kidney Carcinoma). The method, boiled down:
as §1

Test [7] concerns VMRC-LCD (Lung Adenocarcinoma). Summed up:
as §1

Test [8] has as its system EBC-1 (Squamous Cell Lung Carcinoma). Summed up:
as §1

Test [9] has as its system ASH-3 (Thyroid Gland Carcinoma). Summed up: as §1
The test system of test [10] is NCI-H1573 (Lung Adenocarcinoma). Summed up: as §1

As to `C[C@@H](c1ccc2nccn2c1)n1nnc2ncc(-c3cnn(C)c3)nc21` [Savolitinib] + Cc1c2c(nn1C)CSCc1cc(n(C)n1)CSc1cc(c3ccccc3c1)OCCCc1c(C(=O)O)n(C)c3c-2c(Cl)ccc13 [AZD5991] (first compound max 1 µM, 7x7, partner max 1 µM), the Bliss excess in the test on IMR-5 (Neuroblastoma) is 0.0026; with GI-1 (Glioblastoma), 0.0227; with EW-13 (Ewing's Sarcoma), -0.0546; in test [1], -0.0428; in test [2] it was -0.0133; in test [3], -0.0494. For the same molecule, the Bliss excess in [4] was 0.02; in [5], -0.0404; in test [6] it was 0.0058; in the test with A704 (Kidney Carcinoma), -0.0508; in test [7], -0.0198; in test [8] it was 0.0076. Further, the Bliss excess is -0.0466 in test [9] and -0.036 in [10].

As for `Cc1c2c(nn1C)CSCc1cc(n(C)n1)CSc1cc(c3ccccc3c1)OCCCc1c(C(=O)O)n(C)c3c-2c(Cl)ccc13` [AZD5991] + C1CN(CCC1(C(=O)N[C@@H](CCO)C2=CC=C(C=C2)Cl)N)C3=NC=NC4=C3C=CN4 [Capivasertib] (first compound max 1 µM, 7x7, partner max 3 µM), the Bliss excess with IMR-5 (Neuroblastoma) is 0.0045; in the test with GI-1 (Glioblastoma), 0.045; in the test with EW-13 (Ewing's Sarcoma) it was 0.0256; in test [1], 0.039; in test [2], 0.0364; in test [3], -0.0321. Further, the Bliss excess was 0.0384 in [4]; -0.0621 in test [5]; -0.0468 in [6]; -0.065 in the test on A704 (Kidney Carcinoma); -0.0416 in test [7]; 0.0259 in [8]. Moreover, the figures for the Bliss excess in [9] and in [10] were -0.0769 and 0.0057, respectively.

Regarding `CC1(C)CCC(CN2CCN(c3ccc(C(=O)NS(=O)(=O)c4ccc(NCC5CCOCC5)c([N+](=O)[O-])c4)c(Oc4cnc5[nH]ccc5c4)c3)CC2)=C(c2ccc(Cl)cc2)C1` [Venetoclax] + COc1cc(Nc2ncc3c(n2)-c2ccc(Cl)cc2C(c2c(F)cccc2OC)=NC3)ccc1C(=O)O [Alisertib] (first compound max 1 µM, 7x7, partner max 10 µM), the Bliss excess was 0.0402 with IMR-5 (Neuroblastoma); 0.0787 with GI-1 (Glioblastoma); 0.0517 with EW-13 (Ewing's Sarcoma); -0.0364 in [1]; 0.0661 in test [2]; -0.0086 in test [3]. In addition, the Bliss excess was 0.0652 in test [4]; -0.018 in [5]; -0.0049 in test [6]; -0.0913 with A704 (Kidney Carcinoma); -0.043 in test [7]; -0.0271 in test [8]. Further, the Bliss excess was 0.0145 in [9] and -0.0266 in test [10].

Turning to `NC1(C(=O)N[C@@H](CCO)c2ccc(Cl)cc2)CCN(c2ncnc3[nH]ccc23)CC1` [Capivasertib] + Cn1cnc2c(F)c(Nc3ccc(Br)cc3Cl)c(C(=O)NOCCO)cc21 [Selumetinib] (first compound max 10 µM, 7x7, partner max 10 µM), the Bliss excess in the test with IMR-5 (Neuroblastoma) was 0.0034; with GI-1 (Glioblastoma), 0.0399; with EW-13 (Ewing's Sarcoma), 0.0097; in [1], 0.0676; in test [2], 0.147; in [3] it was -0.0364. Moreover, the Bliss excess is 0.0717 in [4]; 0.0219 in test [5]; 0.0272 in test [6]; -0.0098 in the test with A704 (Kidney Carcinoma); 0.0047 in test [7]; 0.0557 in test [8]. Also, the figures for the Bliss excess in [9] and in test [10] were 0.064 and 0.0019, respectively.

As to `Cc1c2c(nn1C)CSCc1cc(n(C)n1)CSc1cc(c3ccccc3c1)OCCCc1c(C(=O)O)n(C)c3c-2c(Cl)ccc13` [AZD5991] + CCN(CCO)CCCOc1ccc2c(Nc3cc(CC(=O)Nc4cccc(F)c4)[nH]n3)ncnc2c1 [AZD2811] (first compound max 1 µM, 7x7, partner max 1 µM), the Bliss excess was -0.0117 in the test with IMR-5 (Neuroblastoma); 0.0731 in the test on GI-1 (Glioblastoma); 0.032 in the test on EW-13 (Ewing's Sarcoma); -0.0339 in [1]; -0.0464 in test [2]; 0.0376 in test [3]. Besides, the Bliss excess in test [4] was -0.0393; in [5], -0.0554; in test [6], -0.0253; in the test with A704 (Kidney Carcinoma), -0.0462; in [7], -0.0133; in [8], 0.0019. Besides, the Bliss excess was -0.014 in test [9] and -0.0145 in test [10].

With `NC1(C(=O)N[C@@H](CCO)c2ccc(Cl)cc2)CCN(c2ncnc3[nH]ccc23)CC1` [Capivasertib] + CCN(CCO)CCCOc1ccc2c(Nc3cc(CC(=O)Nc4cccc(F)c4)[nH]n3)ncnc2c1 [AZD2811] (first compound max 10 µM, 7x7, partner max 1 µM), the Bliss excess with IMR-5 (Neuroblastoma) is -0.0144; in the test on GI-1 (Glioblastoma), 0.022; with EW-13 (Ewing's Sarcoma), 0.007; in [1], -0.011; in [2], -0.0221; in test [3], 0.0011. For the same molecule, the Bliss excess in test [4] is -0.027; in test [5], -0.031; in test [6], -0.0012; with A704 (Kidney Carcinoma) it was -0.0375; in test [7] it was 0.0111; in test [8], 0.0429. The Bliss excess was -0.0147 in test [9] and -0.0074 in test [10].

`CC1(C)CCC(CN2CCN(c3ccc(C(=O)NS(=O)(=O)c4ccc(NCC5CCOCC5)c([N+](=O)[O-])c4)c(Oc4cnc5[nH]ccc5c4)c3)CC2)=C(c2ccc(Cl)cc2)C1` [Venetoclax] + CN(C)CCCOc1ccc(-c2ccc3ncc4c(c3c2)n(C2CCOCC2)c(=O)n4C)cn1 [AZD0156] (first compound max 1 µM, 7x7, partner max 1 µM): the Bliss excess in the test on IMR-5 (Neuroblastoma) is -0.0087; with GI-1 (Glioblastoma) it was 0.0106; in the test with EW-13 (Ewing's Sarcoma) it was -0.0351; in [1] it was -0.0356; in test [2], 0.056; in test [3], -0.0167. Moreover, the Bliss excess in test [4] is 0.068; in test [5] it was -0.0598; in test [6], -0.0746; in the test on A704 (Kidney Carcinoma) it was -0.0717; in [7], -0.0333; in test [8], 0.0095. Besides, the values for the Bliss excess in [9] and in [10] were -0.0193 and -0.0249, respectively.

With `CC1(C)CCC(CN2CCN(c3ccc(C(=O)NS(=O)(=O)c4ccc(NCC5CCOCC5)c([N+](=O)[O-])c4)c(Oc4cnc5[nH]ccc5c4)c3)CC2)=C(c2ccc(Cl)cc2)C1` [Venetoclax] + C1CN(CCC1(C(=O)N[C@@H](CCO)C2=CC=C(C=C2)Cl)N)C3=NC=NC4=C3C=CN4 [Capivasertib] (first compound max 1 µM, 7x7, partner max 3 µM), the Bliss excess was -0.0486 in the test with IMR-5 (Neuroblastoma); -0.0234 with GI-1 (Glioblastoma); -0.0302 with EW-13 (Ewing's Sarcoma); 0.0107 in [1]; 0.0227 in test [2]; -0.0465 in test [3]. Further, the Bliss excess was 0.0634 in test [4]; -0.0613 in [5]; -0.0696 in [6]; -0.079 with A704 (Kidney Carcinoma); -0.0514 in [7]; -0.0395 in [8]. In addition, the Bliss excess in test [9] was -0.0554; in test [10] it was -0.0733.

As to `Cc1c2c(nn1C)CSCc1cc(n(C)n1)CSc1cc(c3ccccc3c1)OCCCc1c(C(=O)O)n(C)c3c-2c(Cl)ccc13` [AZD5991] + Cc1cc2ncnn2cc1Nc1ncc2c(n1)n(C1CCOCC1)c(=O)n2C [AZD7648] (first compound max 1 µM, 7x7, partner max 10 µM), the Bliss excess in the test on IMR-5 (Neuroblastoma) was 0.0226; in the test on GI-1 (Glioblastoma) it was 0.0021; in the test with EW-13 (Ewing's Sarcoma) it was 0.014; in test [1], -0.0195; in test [2], 0.0017; in test [3], 0.0025. The Bliss excess in test [4] is -0.0199; in test [5], -0.0512; in [6] it was -0.0095; in the test with A704 (Kidney Carcinoma) it was -0.0914; in test [7], -0.0302; in [8], -0.0127. Also, the Bliss excess in test [9] is -0.0739; in test [10], 0.0523.

Take `CC1(C)CCC(CN2CCN(c3ccc(C(=O)NS(=O)(=O)c4ccc(NCC5CCOCC5)c([N+](=O)[O-])c4)c(Oc4cnc5[nH]ccc5c4)c3)CC2)=C(c2ccc(Cl)cc2)C1` [Venetoclax] + CCN(CCO)CCCOc1ccc2c(Nc3cc(CC(=O)Nc4cccc(F)c4)[nH]n3)ncnc2c1 [AZD2811] (first compound max 1 µM, 7x7, partner max 1 µM): the Bliss excess with IMR-5 (Neuroblastoma) is -0.0014; with GI-1 (Glioblastoma) it was 0.0405; in the test with EW-13 (Ewing's Sarcoma) it was -0.0499; in test [1], 0.0115; in test [2], 0.0039; in test [3], -0.059. For the same molecule, the Bliss excess was 0.0663 in test [4]; -0.0739 in test [5]; -0.0652 in test [6]; -0.0365 with A704 (Kidney Carcinoma); -0.0227 in test [7]; 0.0178 in test [8]. Moreover, the values for the Bliss excess in [9] and in [10] were -0.0166 and -0.0246, respectively.
